Values after ≈ are worked out from the molar mass of the structure shown.
Tests used:
[1] = target: T1, Mabε (M. abscessus F-ATP synthase subunit ε) (Mycobacteroides abscessus, UniProt B1MLW3); assay: NMR titration of Mabε with MgATP; assay type: binding, Mycobacterium abscessus; details: molar ratio of Mabε to MgATP of 1:10
T1 construct: made in house; host or cells: Escherichia coli C41 (DE3)
Source text: In thermophilic Bacillus PS3, Bacillus subtilis and chloroplasts, the C terminus of E is described as a mobile regulatory element, altering its conformation in response to nucleotide conditions or the ion motive force (IMF). ATP binding in E of thermophilic Bacillus PS3 and Bacillus subtilis forces the C-terminal helices into a hairpin conformation, which extends in the absence of the nucleotide, leading to an inhibited ATP hydrolysis state. Here, we used the high-quality NMR spectra of Mabε and performed NMR titration experiments in the presence of MgATP (molar ratio of Mabε to MgATP of 1:10). […] ATP binding of the M. smegmatis subunit E was also not observed in the recent cryo-EM structure of the M. smegmatis F-ATP synthase (Guo, H. et al., Nature 2021, 589, 143-147), underlining that the mycobacterial E subunits are not regulated via nucleotide binding to this rotary subunit.

[2] = tested on: intracellular ATP synthesis of M. abscessus subsp. abscessus; assay: Whole-cell ATP measurement (BacTiter-Glo), intracellular ATP synthesis inhibition; assay type: cell-based, Mycobacterium abscessus subsp. abscessus; details: Mycobacteroides abscessus, CAMH medium, 24 h, read-out: inhibitory concentration (IC50) for intracellular ATP levels
Protocol: Clear 96-well flat-bottom cell culture plates (Nunc) were filled with 100 μL of CAMH medium in each well. The compound was added to the first well in each row to create two times the desired highest final concentration. Subsequently, a […] twofold serial dilution was carried out starting from the first well in each row. Mab, which was grown to mid-exponential phase, was diluted to an optical density at 600 nm (OD600) of 0.1; 100 μL of the diluted culture was added to each well to create a final OD600 of 0.05 in all the wells. The plates were incubated at 37° C. on a standing incubator for 24 h. At the end of the incubation period, the samples were measured for their intrabacterial ATP content by employing the BacTiter-Glo microbial cell viability assay (Promega), which was carried out according to the manufacturer's instructions as described previously (Hotra, A. et al., Angew. Chem. Int. Ed. Engl. 2020, 59, 13295-13304). […] Luminescence was measured with Cytation 5 multi-mode reader after 10 min of incubation of the plate in the dark at room temperature. The background luminescence reading was subtracted from the luminescence readings of all the samples. The ATP amount is directly proportional to the relative luminescence units. […]
The similar IC50- and MIC50 values determined, indicate that ATP synthesis catalyzed by the F-ATP synthase is the major cause of cell growth inhibition.

[3] = target: T1, Mabε (M. abscessus F-ATP synthase subunit ε); assay: 1H-15N-HSQC NMR titration and R2 relaxation of Mabε with compound; assay type: binding, Mycobacterium abscessus; details: 1:5 molar ratio of Mabε and Ep1MabF1; residues V9, A10, R13, E14, G68-I72, V77, I79-A81
Protocol: All NMR experiments were carried out on a BrukerAvance 700-MHz spectrometer, which was equipped with a cryoprobe at 298 K.
To confirm that Mabε is Ep1MabF1's target, a ^1H-^15N-HSQC NMR titration experiment in the presence (1:5 molar ratio of Mabε and Ep1MabF1) and absence of the compound was performed. Significant changes in chemical shift were (CSP >0.15 ppm) detected for the backbone resonances of amino acids V9, A10, R13, E14, G68-172, V77 and 179-A81 (FIGS. 14C and 15). […] In addition, we measured R2 relaxation data in the presence of Ep1MabF1 and calculated the changes of R2 values between the compound-free and compound-bound protein.

[4] = tested on: M. abscessus subsp. abscessus ATCC 19977; assay: Growth inhibition dose-response assay, broth microdilution in CAMH medium; assay type: cell-based, Mycobacterium abscessus subsp. abscessus; details: Mycobacteroides abscessus, ATCC19977; M. abscessus subsp. abscessus ATCC 19977, CAMH medium; concentration that inhibits 50% of growth; read-out: minimum inhibitory concentration (MIC50), growth inhibition
Protocol: The M. abscessus subsp. abscessus ATCC 19977 strain was used. The Mab strain was maintained in CAMH broth, which was prepared according to the manufacturer's instructions. The growth inhibition dose-response assay was carried out using the broth microdilution method as described previously (Moreira, W., Aziz, D. B. & Dick T., Front. Microbiol. 2016, 7, 199). The MIC50 reported represents the concentration that inhibits 50% of growth compared with the untreated culture.

T1 sequence (B1MLW3 2-121): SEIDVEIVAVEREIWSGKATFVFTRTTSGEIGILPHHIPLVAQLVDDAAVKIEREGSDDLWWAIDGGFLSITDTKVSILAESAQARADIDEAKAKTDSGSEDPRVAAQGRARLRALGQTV

SMILES: Nc1ncnc2c1ncn2[C@@H]1O[C@H](COP(=O)(O)OP(=O)([O-])OP(=O)([O-])O)[C@@H](O)[C@H]1O.[Mg+2] [MgATP]
- chemical shift change of Mabε in 15N HSQC after addition of nucleotide (binding) [1]: no obvious chemical shift was observed

SMILES: Cc1cccc(Cc2nc3ccccc3n2CCC(=O)NCc2ccccn2)c1 [Ep1MabF1, 3-(2-(3-methylbenzyl)-1H-benzo[d]imidazol-1-yl)-N-(pyridin-2-ylmethyl)propanamide]
- IC50 [2]: 600 ± 30 µM
- chemical shift perturbation (CSP) of Mabε backbone resonances [3]: > 0.15 ppm
- MIC50 [4]: 420 ± 14 µM (≈ 161 µg/mL)

— patent publication US20240390351A1, “MYCOBACTERIUM ABSCESSUS GROWTH INHIBITOR AND MODEL” (priority 2021, published 2024)
